6 compounds from patent US20020142457A1, “Cell having the potentiality of differentiation into cardiomyocytes” (priority 1999, published 2002) can be followed below.

One test deals with KUM2 cells. As to the kind of experiment: Induction of spontaneously beating cardiomyocytes in KUM2 cells by 5-aza-C. The test is classed as cell-based, mouse. To be noted: 5-aza-C 3 μM for 24 hours. The procedure:
After culturing for about 4 months under the above conditions, immortalized cells were selected and diluted to establish 192 cell lines respectively derived from single cells (hereinafter referred to as bone marrow-derived first passage immortalized cell lines). To each of these clone-derived cell lines was added 5-aza-C at a final concentration of 3 μM, and the cells were cultured for 24 hours. After culturing for further 2 weeks in IMDM, clones that produced spontaneously beating cells were selected. […] One of three cell lines is KUM2. Hereinafter, unless otherwise indicated, the bone marrow cell KUM2 and mouse bone marrow-derived pluripotent stem cells (BMSC) described below were cultured in IMDM supplemented with 20% FCS, […] penicillin, 250 ng/ml streptomycin and […] amphotericin at 33° C. using a 5% CO2-incubator. When the KUM2 cells were exposed to 5-aza-C having a final concentration of 3 μM for 24 hours, nonspecific differentiation into spontaneously beating cardiomyocytes was induced. However, the frequency is very low (one or less per 10^7 cells).

For test [1], the system named is Nkx2.5/Csx and GATA4 co-forced expressing bone marrow cells (BMSC-Nkx2.5-GATA4). In words: Differentiation of BMSC-Nkx2.5-GATA4 with cytokines, phase-contrast microscope. The test is classed as cell-based, mouse. To be noted: BMSC-Nkx2.5-GATA4, 5-aza-C 3 μM in all dishes; cytokine 10 ng/ml; four weeks. The procedure: The Nkx2.5/Csx and GATA4 co-forced expressing bone marrow cells (BMSC-Nkx2.5-GATA4) having the potential to differentiate into cardiomyocytes were plated into a 60-mm culture dish at a density of 2×10^4 cells/ml and cultured at 33° C. in a 5% CO2-incubator.
On the next day, 5-aza-C was added to the culture medium to give a final concentration of 3 μM. Furthermore, 5 treatments differing from each other were carried out by adding FGF-8 to give a final concentration of 10 ng/ml (culture dish I); adding ET-1 to give a final concentration of 10 ng/ml (culture dish J); adding midkine to give a final concentration of 10 ng/ml (culture dish K); adding BMP4 to give a final concentration of 10 ng/ml (culture dish L); and adding nothing (culture dish M), followed by culturing.
On the next day, the medium was replaced with a fresh medium to eliminate 5-aza-C. Then, FGF-8 was added to the culture dish I to give a final concentration of 10 ng/ml; ET-1 was added to the culture dish J to give a final concentration of 10 ng/ml; midkine was added to the culture dish K to give a final concentration of 10 ng/ml; and BMP4 was added to the culture dish L to give a final concentration of 10 ng/ml, followed by culturing. Two and four days thereafter, furthermore, the medium was replaced, and the FGF-8, ET-1, midkine or BMP4 was added.
As a result, about 30% of the cells in the culture dish containing 5-aza-C alone were converted into myotubes, while about 50% of the cells in the culture dishes containing FGF-8, ET-1, midkine or BMP4 differentiated into myotubes respectively. On the other hand, the addition of FGF-8, ET-1, midkine or BMP4 caused no increase in beating cardiomyocytes.

The subject of test [2] is mouse bone marrow-derived pluripotent stem cells (BMSC). As to the kind of experiment: Differentiation of BMSC into myotubes, phase-contrast microscope. Format: cell-based. To be noted: 5-aza-C 3 μM in all dishes. How it is done: The mouse bone marrow-derived pluripotent stem cells (BMSC) having the potential to differentiate into cardiomyocytes were plated into 60-mm culture dishes and 60 mm fibronectin-coated dishes (Becton Dickinson) at a density of 2×10^4 cells/ml and cultured at 33° C. in a 5% CO2-incubator.
On the next day, 5-aza-C was added to each culture medium in a final concentration of 3 μM, followed by culturing with the following 3 different treatments, with addition of PDGF (culture dish A), both PDGF and retinoic acid (culture dish B) or without addition of any compound (culture dish C) (final concentration: PDGF, 10 ng/ml; retinoic acid, 10^−9 M).
On the next day, the medium was replaced with a fresh medium to remove 5-aza-C therefrom. Then, PDGF was added to the culture dish A until the final concentration of PDGF came to be 10 ng/ml, while PDGF and retinoic acid were added to the culture dish B until the final concentrations of PDGF and retinoic acid came to be 10 ng/ml and 10^−9 M, respectively. Two and four days thereafter, the medium was replaced and the PDGF or retinoic acid was further added.
As a result, about 30% of the cells in the culture dish containing 5-aza-C alone differentiated into myotubes, while about 40% of the cells in the culture dish containing PDGF and about 50% of the cells in the culture dish containing PDGF together with retinoic acid differentiated into myotubes. In the three groups of the fibronectin-coated dishes, the ratio of the cells differentiated into myotubes was about 10% higher than in the three groups of the culture dishes.
(§1) RNAs were collected from the myotubes thus obtained. And genes expressed in the myotubes were analyzed with quantitative PCR analysis using the synthetic oligonucleotides represented by SEQ ID NOS:71 to 78. As a result, PDGF or retinoic acid promoted the expression of MyoD and fTnI genes relating to a skeletal muscle but not cTnI or ANP specifically relating to a myocardium. Next, mouse bone marrow-derived pluripotent stem cells (BMSC) having the potential to differentiate into cardiomyocytes were inoculated in a 60-mm culture dish at a density of 2×10^4 cells/ml and cultured using an incubator at 33° C. under 5% of CO2.
On the next day, 5-aza-C was added to the liquid culture medium to give a final concentration of 3 μM. Furthermore, five treatments differing from each other were performed by adding FGF-8 to give a final concentration of 10 ng/ml (culture dish D); adding ET-1 to give a final concentration of 10 ng/ml (culture dish E); adding a midkine to give a final concentration of 10 ng/ml (Culture dish F); adding BMP4 to give a final concentration of 10 ng/ml (culture dish G); and adding no compound (culture dish H), followed by culturing.
On the next day, the medium was replaced by a fresh medium to eliminate 5-aza-C therefrom. Then, FGF-8 was added to the culture dish D to give a final concentration of 10 ng/ml; ET-1 was added to the culture dish E to give a final concentration of 10 ng/ml; the midkine was added to the culture dish F to give a final concentration of 10 ng/ml; and BMP4 was added to the culture dish G to give a final concentration of 10 ng/ml, followed by culturing. Two and four days thereafter, the medium was replaced and the FGF-8, ET-1, midkine or BMP4 was further added.
As a result, about 30% of the cells in the culture dish containing 5-aza-C alone differentiated into myotubes, while about 50% of the cells in the culture dishes containing FGF-8, ET-1, midkine or BMP4 differentiated into myotubes respectively.

The test system is the same in test [3]. As to the kind of experiment: Induction of differentiation of BMSC into cardiomyocytes using DMSO. The following applies: then 6 weeks. The test is classed as cell-based. How it is done: According to the method described in Example 1, mouse bone marrow-derived pluripotent stem cells (BMSC) having the potential to differentiate into cardiomyocytes were obtained and cultured for 24 hours in the presence of 10 μM DMSO instead of 3 μM 5-aza-C. The medium was replaced with IMDM, followed by culturing for 6 weeks.

In a further test the test system is Bone marrow cells (BMSC). In words: Induction of adipocytes from BMSC by PPAR-γ receptor agonists. The test is classed as cell-based, mouse. The procedure: Bone marrow cells (BMSC) having the potential to differentiate into cardiomyocytes can be induced to differentiate not only into cardiomyocytes but also into adipocytes. To control the differentiation into adipocytes, the conditions for the induction of the differentiation were examined. First, the expression of PPAR-y receptors was analyzed by the quantitative PCR method. […] Subsequently, PPAR-γ receptor agonists, pioglitazone and troglitazone, were added at various concentrations to bone marrow cells (BMSC) having the potential to differentiate into cardiomyocytes.

The test system of test [4] is mouse bone marrow-derived pluripotent stem cells (BMSC). In words: Quantitative PCR of genes expressed in myotubes from BMSC. Format: cell-based. To be noted: with 5-aza-C 3 μM; for expression of cTnI or ANP specifically relating to a myocardium: PDGF 10 ng/ml, retinoic acid 10^−9 M. The procedure: as §1
RNAs were collected from the myotubes thus obtained. And genes expressed in the myotubes were analyzed with quantitative PCR using the synthetic oligonucleotides represented by SEQ ID NOS:71 to 78. As a result, the FGF-8, ET-1, midkine and BMP4 each individually promoted the expression of cTnI and ANP gene which are myocardium-specific genes.

[5] abbreviates: culture dishes, PDGF 10 ng/ml, retinoic acid 10^−9 M, four weeks.

As for `Nc1ncn([C@@H]2O[C@H](CO)[C@@H](O)[C@H]2O)c(=O)n1` [5-aza-C, 5-azacytidine, reference compound], the “frequency of differentiation into spontaneously beating cardiomyocytes” value with KUM2 cells was “one or less”. Further, the “cells differentiated into myotubes” value in test [1] is “about 30%”; in test [2] (cytokine 10 ng/ml, four weeks after addition of 5-aza-C) it was “about 30%”; in test [2] (setting [5]), “about 30%”.

On to `C[S+](C)[O-]` [DMSO, dimethyl sulfoxide], for which the “differentiation into beating cardiomyocytes” value in test [3] (10 μM DMSO for 24 hours instead of 5-aza-C) is given as “induced to differentiate into beating cardiomyocytes”. Also, the “expression of Nkx2.5/Csx and GATA4 genes in produced cells” value in test [3] (10 μM DMSO for 24 hours) is given as “expressed”.

As for `CCc1ccc(CCOc2ccc(CC3SC(=O)NC3=O)cc2)nc1` (stereo not drawn) [pioglitazone], the results for the “BMSCs differentiated into adipocytes” value in the test with Bone marrow cells (BMSC) (0.4 μM) and in the test on Bone marrow cells (BMSC) (2 μM) were “about 50%” and approximately 100%, respectively.

For the compound `CC1=C(/C=C/C(C)=C/C=C/C(C)=C/C(=O)O)C(C)(C)CCC1` [retinoic acid, all trans retinoic acid, reference compound], in test [4], the “expression of MyoD and fTnI genes relating to a skeletal muscle” value is given as “promoted”; the “expression of cTnI or ANP specifically relating to a myocardium” value was “not”.

Regarding `Cc1c(C)c2c(c(C)c1O)CCC(C)(COc1ccc(CC3SC(=O)NC3=O)cc1)O2` (stereo not drawn) [troglitazone], the “BMSCs differentiated into adipocytes” value in the test on Bone marrow cells (BMSC) (0.4 μM) was “about 50%”; in the test on Bone marrow cells (BMSC) (2 μM), approximately 100%.

For the compound PDGF, in test [4], the “expression of MyoD and fTnI genes relating to a skeletal muscle” value is reported as “promoted”; the “expression of cTnI or ANP specifically relating to a myocardium” value was “not”. For the same compound, in test [2] (setting [5]), the “cells differentiated into myotubes” value was “about 40%”.
